Data reported in patent publication US9040523B2, “Antifungal 5,6-dihydro-4H-pyrrolo[1,2-α][1,4]-benzodiazepines and 6H-pyrrolo[1,2-α][1,4]benzodiazepines substituted with benzene derivatives” (JANSSEN PHARMACEUTICA NV, priority 2010, dated 2015).

Tests used:
Cytochrome P450 1A2 = biological target: T1, Cytochrome P450 1A2 (Homo sapiens, UniProt P05177); assay: Human liver microsomal cytochrome P450 cocktail inhibition assay, Protocol C
T1 sequence (P05177 1-516): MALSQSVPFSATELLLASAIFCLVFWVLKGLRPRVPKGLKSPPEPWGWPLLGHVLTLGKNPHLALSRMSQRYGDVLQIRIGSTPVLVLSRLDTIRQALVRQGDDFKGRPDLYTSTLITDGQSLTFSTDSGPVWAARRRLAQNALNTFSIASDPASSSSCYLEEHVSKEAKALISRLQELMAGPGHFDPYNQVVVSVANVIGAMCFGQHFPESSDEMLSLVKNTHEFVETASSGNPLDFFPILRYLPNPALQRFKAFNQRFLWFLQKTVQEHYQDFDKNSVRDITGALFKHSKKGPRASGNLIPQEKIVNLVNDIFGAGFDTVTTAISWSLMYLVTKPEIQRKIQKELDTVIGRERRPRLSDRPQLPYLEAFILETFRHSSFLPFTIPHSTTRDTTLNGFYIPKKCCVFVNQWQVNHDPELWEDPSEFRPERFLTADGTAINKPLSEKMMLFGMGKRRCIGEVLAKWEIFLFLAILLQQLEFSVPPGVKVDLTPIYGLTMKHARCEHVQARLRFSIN
Description: (§1) Probe substrates and final assay concentrations with the appropriate internal standard are outlined in Table 6a.
(§2) Assays were performed in 0.1 M phosphate buffer (pH 7.4), containing 0.2 mg/ml human liver microsomes (BD Gentest) and a probe substrate mix consisting of: phenacetin, tolbutamide, S-mephenyloin, dextromethorphan, amodiaquine and midazolam (Table 6a) and a range of test compound concentrations (0 to 30 micromolar) in a total volume of 100 microliters. After a 10 min pre-incubation at 37° C., the reaction was started with addition of NADPH at a final concentration of 1.0 mM. […] The samples are centrifuged for 10 min at 4° C. at 4000 rpm and 60 microliters supernatant is diluted with 180 microliters water. Each sample is injected onto a UPLC/MS system for the simultaneous measurement of the probe substrate metabolites and their associated deuterated internal standards. Percentage inhibition is calculated according to: %-inhibition=(1−Ri/R)*100, whereby Ri and R are the metabolite to internal standard peak area ratios in the presence and absence of inhibitor respectively.
(§3) Percentage inhibition data are plotted against the Log transformed test compound concentration and after curve fitting the IC50-value is determined.

Cytochrome P450 2C19 = Cytochrome P450 2C19 (Homo sapiens, UniProt P33261); assay: as above; settings: 2C19_S-Meph pIC50, human liver microsomes 0.2 mg/ml; probe S-mephenytoin 30 microM
Chain of Cytochrome P450 2C19 (P33261 whole entry): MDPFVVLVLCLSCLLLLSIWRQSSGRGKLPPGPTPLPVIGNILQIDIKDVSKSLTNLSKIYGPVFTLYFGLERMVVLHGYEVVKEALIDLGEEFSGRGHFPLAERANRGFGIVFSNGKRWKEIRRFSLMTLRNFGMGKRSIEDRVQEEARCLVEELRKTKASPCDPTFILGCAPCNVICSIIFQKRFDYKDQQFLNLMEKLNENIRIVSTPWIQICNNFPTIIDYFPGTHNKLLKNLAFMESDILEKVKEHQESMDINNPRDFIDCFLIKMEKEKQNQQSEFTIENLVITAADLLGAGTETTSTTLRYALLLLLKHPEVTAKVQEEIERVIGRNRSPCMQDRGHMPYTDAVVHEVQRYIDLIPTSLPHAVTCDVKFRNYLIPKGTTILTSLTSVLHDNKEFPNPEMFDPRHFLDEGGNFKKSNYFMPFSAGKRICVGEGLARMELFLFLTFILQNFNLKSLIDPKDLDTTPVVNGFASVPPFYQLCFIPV
Description: as §1, §2, §3

Cytochrome P450 2C9 = Cytochrome P450 2C9 (Homo sapiens, UniProt P11712); assay: as above; settings: 2C9 Tolbut pIC50, human liver microsomes 0.2 mg/ml; probe tolbutamide 100 microM
Chain of Cytochrome P450 2C9 (P11712 whole entry): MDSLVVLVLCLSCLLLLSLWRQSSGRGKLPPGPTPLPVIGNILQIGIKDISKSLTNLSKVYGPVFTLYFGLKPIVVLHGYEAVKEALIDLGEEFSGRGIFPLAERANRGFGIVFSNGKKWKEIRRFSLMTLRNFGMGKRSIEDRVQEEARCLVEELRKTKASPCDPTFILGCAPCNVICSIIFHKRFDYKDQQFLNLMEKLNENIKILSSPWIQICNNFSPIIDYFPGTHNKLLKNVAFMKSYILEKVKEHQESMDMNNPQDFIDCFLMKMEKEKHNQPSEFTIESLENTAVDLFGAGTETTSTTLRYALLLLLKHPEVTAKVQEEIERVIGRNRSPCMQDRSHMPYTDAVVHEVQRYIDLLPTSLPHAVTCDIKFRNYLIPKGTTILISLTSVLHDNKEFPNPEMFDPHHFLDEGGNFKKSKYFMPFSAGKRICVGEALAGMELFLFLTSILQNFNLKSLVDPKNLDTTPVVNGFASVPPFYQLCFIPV
Description: as §1, §2, §3

Cytochrome P450 2D6 = Cytochrome P450 2D6 (Homo sapiens, UniProt P10635); assay: as above; settings: 2D6_Dextro pIC50, human liver microsomes 0.2 mg/ml; probe dextromethorphan 3 microM
Chain of Cytochrome P450 2D6 (P10635 whole entry): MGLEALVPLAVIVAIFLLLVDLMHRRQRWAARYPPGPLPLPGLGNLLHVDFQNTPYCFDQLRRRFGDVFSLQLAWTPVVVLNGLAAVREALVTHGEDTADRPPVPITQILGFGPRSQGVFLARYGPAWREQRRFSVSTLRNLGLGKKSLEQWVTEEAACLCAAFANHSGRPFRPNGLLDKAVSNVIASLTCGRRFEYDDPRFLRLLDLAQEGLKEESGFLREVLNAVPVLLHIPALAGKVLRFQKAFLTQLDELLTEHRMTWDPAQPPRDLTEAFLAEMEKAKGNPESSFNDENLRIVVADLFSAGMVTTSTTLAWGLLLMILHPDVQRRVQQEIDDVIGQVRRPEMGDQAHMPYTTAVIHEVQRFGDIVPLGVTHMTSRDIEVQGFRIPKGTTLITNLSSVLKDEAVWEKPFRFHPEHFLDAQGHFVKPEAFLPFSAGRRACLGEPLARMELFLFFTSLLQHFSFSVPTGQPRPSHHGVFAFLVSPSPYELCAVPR
Description: as §1, §2, §3

[1] = system: Sporothrix schenkii B62482; assay: Antifungal activity in vitro (resazurin susceptibility screen), Inf. A; type: cell-based; settings: Sporothrix, B62482, Sporothrix schenkii B62482; 27 °C, 4 days, resa time 24 hours; highest in-test concentration 64 μM; read-out: Inf. A pIC50 (converted)
Description: (§4) The standard susceptibility screen was performed in 96-well plates (U-bottom, Greiner Bio-One). […] These serial dilutions (10 n1) were then spotted onto test-plates that could be stored in the dark at 4° C. for a maximum period of 2 weeks. […] The different fungal species/isolates (Table 3a) were cryopreserved and 1/1000 diluted in medium just prior to use. A standard inoculum of 200 μl containing 10^3 colony-forming unit (cfu) was then added to each well. A positive control (100% growth=fungal culture without antifungal) and a negative control (0% growth ═RPMI-MOPS medium) were included on each plate. […] [table]

Microsporum canis B68128 = assay: Antifungal activity in vitro (resazurin susceptibility screen), Inf. B; type: cell-based; settings: Microsporum canis, B68128, Microsporum canis B68128; 27 °C, 9 days, resa time 24 hours; read-out: Inf. B pIC50 (converted)
Description: (§5) The standard susceptibility screen was performed in 96-well plates (U-bottom, Greiner Bio-One). […] These serial dilutions (10 n1) were then spotted onto test-plates that could be stored in the dark at 4° C. for a maximum period of 2 weeks. […] A standard inoculum of 200 μl containing 10^3 colony-forming unit (cfu) was then added to each well. A positive control (100% growth=fungal culture without antifungal) and a negative control (0% growth ═RPMI-MOPS medium) were included on each plate.

[2] = system: Trichophyton rubrum B68183; assay: Antifungal activity in vitro (resazurin susceptibility screen), Inf. C; type: cell-based; settings: Trichophyton rubrum B68183; 27 °C, 7 days, resa time 24 hours; read-out: Inf. C pIC50 (converted)
Description: as §4

[3] = system: Candida parapsilosis B66126; assay: Antifungal activity in vitro (resazurin susceptibility screen), Inf. D; type: cell-based; settings: Lodderomyces parapsilosis; Candida parapsilosis B66126; 37 °C, 24 hours, resa time 4 hours; read-out: Inf. D pIC50 (converted)
Description: as §5

[4] = system: Aspergillus fumigatus B42928; assay: Antifungal activity in vitro (resazurin susceptibility screen), Inf. E; type: cell-based; settings: Aspergillus fumigatus B42928; 27 °C, 48 hours, resa time 17 hours; read-out: Inf. E pIC50 (converted)
Description: as §4

[5] = system: Cryptococcus neoformans B66663; assay: Antifungal activity in vitro (resazurin susceptibility screen), Inf. F; type: cell-based; settings: Cryptococcus neoformans, B66663, Cryptococcus neoformans B66663; 37 °C, 24 hours, resa time 4 hours; read-out: Inf. F pIC50 (converted)
Description: as §4

[6] = system: Trichophyton mentagrophytes B70554; assay: Antifungal activity in vitro (resazurin susceptibility screen), Inf. G; type: cell-based; settings: Trichophyton mentagrophytes, B70554, Trichophyton mentagrophytes B70554; 27 °C, 7 days, resa time 24 hours; read-out: Inf. G pIC50 (converted)
Description: as §5

[7] = Liver metabolic stability assay, hLM; type: in vitro ADME, human
Description: (§6) Liver preparations (microsomal fractions) were obtained from BD Gentest (San Jose, Calif., US). Metabolic stability was assessed using the following assay conditions. […] The mixture was pre-incubated at 37° C. for 5 min and the enzymatic reaction was started by addition of 5 μM test compound. After 0 (control) and 15 minutes (min), the reactions were terminated by addition of […] (500 μl). The precipitated material was removed by centrifugation at 1200 g for 10 min. The supernatant was analysed by LC-MS/MS on a ThermoFinnigan LCQ Deca XP ion-trap mass spectrometer equipped with an atmospheric pressure chemical ionisation source. Calculation of %-compound remaining was as described by Kantharaj et al. 2003 ((Kantharaj E., Tuytelaars A, Proost P E A, Ongel Z, van […] (2003). Simultaneous measurement of drug metabolic stability and identification of metabolites using ion-trap mass spectrometry.

[8] = Liver metabolic stability assay, gpLM; type: in vitro ADME, guinea pig
Description: as §6

CYP3A4 = CYP3A4 (Homo sapiens, UniProt P08684); assay: Cytochrome P450 inhibition, Protocol A, cDNA expressed proteins, fluorogenic substrates; type: in vitro ADME
Chain of CYP3A4 (P08684 whole entry): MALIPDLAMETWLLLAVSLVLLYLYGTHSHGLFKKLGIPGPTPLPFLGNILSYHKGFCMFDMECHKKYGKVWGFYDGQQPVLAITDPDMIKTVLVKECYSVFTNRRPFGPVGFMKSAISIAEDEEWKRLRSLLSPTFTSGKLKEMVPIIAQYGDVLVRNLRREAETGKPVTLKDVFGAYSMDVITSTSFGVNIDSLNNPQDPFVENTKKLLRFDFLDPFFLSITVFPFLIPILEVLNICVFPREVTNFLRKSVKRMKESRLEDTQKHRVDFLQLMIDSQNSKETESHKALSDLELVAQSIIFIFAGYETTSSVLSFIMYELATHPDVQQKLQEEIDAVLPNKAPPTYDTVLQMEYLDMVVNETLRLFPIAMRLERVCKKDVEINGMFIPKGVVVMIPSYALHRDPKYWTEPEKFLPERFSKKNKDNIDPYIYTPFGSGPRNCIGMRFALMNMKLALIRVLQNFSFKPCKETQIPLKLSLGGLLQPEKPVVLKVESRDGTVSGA
Description: (§7) All fluorogenic based assays were performed in Black Costar 96-well plates according to Crespi et al 1997 with minor modifications (Crespi C L, Miller V P & Penman B W (1997). Microtiter plate assays for inhibition of human, drug-metabolizing cytochromes P450. Anal. Biochem. Vol 248, 1898-1900). Assay conditions are outlined in Table 5a. For cytochrome P450 3A4, three different fluorogenic substrates were used. Each reaction mixture consisted of the appropriate concentration of enzyme, NADPH-generating system (“NADPH” means β-nicotinamide adenine dinucleotide phosphate, reduced), substrate in sodium/potassium buffer (pH 7.4). For each cytochrome P450 batch Michealis-Menten kinetics were determined using 11 concentrations.
(§8) Thereafter, further dilutions were made in acetonitrile. […] The compounds were serially diluted to give final concentrations ranging from 1 nM to 10 μM. The reaction mixtures, whereby 1 μL of buffer was replaced by compound solution, were pre-warmed for 5 min at 37° C. and the reaction was initiated by the addition of β-nicotinamide adenine dinucleotide phosphate (NADP+). Reactions were terminated by addition of stopping reagent and the fluorescence was measured using a Fluoroscan (Labsystems, Brussel, Belgium).
(§9) In Table 5a, the following abbreviations were used: 3-cyano-7-ethocycoumarin (CEC), 7-methoxy-4-trifluoromethylcoumarin (MFC), 3-[2-(N,N-diethyl-N-methylamino)ethyl]-7-methoxy-4-methylcoumarin (AMMC), 7-benzyloxy-trifluoromethyl coumarin (BFC), 7-benzyloxyquinoline (BQ) and dibenzyl fluorescein (DBF).

CYP1A2 = biological target: T2, CYP1A2 (Homo sapiens, UniProt P05177); assay: Cytochrome P450 inhibition, Protocol A, cDNA expressed proteins, fluorogenic substrate; type: in vitro ADME
T2 sequence (P05177 1-516): T1 sequence (P05177 1-516)
Description: as §7, §8, §9

CYP2C9 = CYP2C9 (Homo sapiens, UniProt P11712); assay: as above; type: in vitro ADME
Chain of CYP2C9 (P11712 whole entry): as the sequence (P11712 whole entry) above
Description: as §7, §8, §9

CYP2D6 = CYP2D6 (Homo sapiens, UniProt P10635); assay: as above; type: in vitro ADME
Chain of CYP2D6 (P10635 whole entry): as the sequence (P10635 whole entry) above
Description: as §7, §8, §9

Cytochrome P450 2C8 = biological target: T3, Cytochrome P450 2C8 (Homo sapiens, UniProt P10632); assay: Human liver microsomal cytochrome P450 cocktail inhibition assay, Protocol C; type: in vitro ADME; settings: human liver microsomes 0.2 mg/ml; probe amodiaquine 2 microM; read-out: 2C8_Amod pIC50 (converted)
T3 construct: tissue BD Gentest; host or cells: human liver microsomes
T3 sequence (P10632 1-490): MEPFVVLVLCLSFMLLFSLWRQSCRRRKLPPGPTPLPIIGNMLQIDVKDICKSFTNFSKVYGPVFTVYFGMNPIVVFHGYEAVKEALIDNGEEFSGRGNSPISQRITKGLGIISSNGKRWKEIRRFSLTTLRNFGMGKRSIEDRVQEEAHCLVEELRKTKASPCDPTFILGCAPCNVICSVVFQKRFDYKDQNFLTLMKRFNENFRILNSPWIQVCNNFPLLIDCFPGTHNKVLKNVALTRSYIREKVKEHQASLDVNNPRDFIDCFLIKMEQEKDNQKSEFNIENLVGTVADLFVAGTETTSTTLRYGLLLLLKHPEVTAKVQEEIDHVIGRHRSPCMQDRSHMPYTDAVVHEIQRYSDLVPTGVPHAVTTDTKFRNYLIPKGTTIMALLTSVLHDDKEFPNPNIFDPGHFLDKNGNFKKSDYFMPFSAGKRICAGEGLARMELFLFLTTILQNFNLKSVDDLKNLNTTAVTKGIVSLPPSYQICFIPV
Description: as §1, §2, §3

With `CCc1cccc(C2NCc3c(Cl)cccc3-n3cccc32)c1` (stereo not shown) as the molecule, how does the IC50 (Cytochrome P450 1A2) read?
The IC50 was over 10 µM.

What about the IC50 (Cytochrome P450 2C19) of the same molecule?
The IC50 was 1260 nM.

What about the IC50 (Cytochrome P450 2C9) of the same molecule?
Its IC50 is 6.31 µM.

What about the IC50 (Cytochrome P450 2D6) of the same molecule?
Its IC50 is 2000 nM.

What does the source list for `CC(=O)c1cc(C2NCc3c(Cl)cc(Cl)cc3-n3cccc32)ccc1F` (stereo not shown) [Compound 13, 1-[5-(7,9-dichloro-5,6-dihydro-4H-pyrrolo[1,2-a][1,4]benzodiazepin-4-yl)-2-fluorophenyl]-ethanone]?
IC50 [1]: > 63.1 µM; IC50 (Microsporum canis B68128): 7.94 µM; IC50 [2]: 2000 nM; IC50 [3]: > 63.1 µM; IC50 [4]: > 63.1 µM; IC50 [5]: > 63.1 µM; IC50 [6]: > 63.1 µM; %-compound metabolised_Met_hLM ([7]; human, microsomes, 0.25 h, 5 μM, pH 7.4): 69%; %-compound metabolised Met_gpLM ([8]; guinea pig, microsomes, 0.25 h, 5 μM, pH 7.4): 95%; hCYP3A4_BFC_Pct_Inh (CYP3A4; human, 10 μM, pH 7.4): 81%; hCYP3A4_BQ_Pct_Inh (CYP3A4; human, 10 μM, pH 7.4): 78%; hCYP3A4_DBF_Pct_Inh (CYP3A4; human, 10 μM, pH 7.4): 91%; hCYP1A2_CEC_Pct_Inh (CYP1A2; human, 10 μM, pH 7.4): 64%; hCYP2C9_MFC_Pct_Inh (CYP2C9; human, 10 μM, pH 7.4): 61%; hCYP2D6_AMMC_Pct_Inh (CYP2D6; human, 10 μM, pH 7.4): 51%

Which results are given for `CC(=O)c1cc(C2=NCc3c(Cl)cc(Cl)cc3-n3cccc32)ccc1F` [Compound 23, 1-[5-(7,9-dichloro-6H-pyrrolo[1,2-a][1,4]benzodiazepin-4-yl)-2-fluorophenyl]-ethanone]?
IC50 [1]: > 63.1 µM; IC50 (Microsporum canis B68128): > 63.1 µM; IC50 [2]: > 63100 nM; IC50 [3]: > 63.1 µM; IC50 [4]: > 63.1 µM; IC50 [5]: > 63.1 µM; IC50 [6]: > 63.1 µM; %-compound metabolised_Met_hLM ([7]; human liver microsomes, 1 mg protein/ml, 5 μM test compound, 15 min, 37 °C): 22%; %-compound metabolised Met_gpLM ([8]; guinea pig microsomes, 1 mg protein/ml, 5 μM test compound, 15 min, 37 °C): 39%; hCYP3A4_BFC_Pct_Inh (CYP3A4; % inhibition at 10 μM, substrate BFC, cDNA expressed protein): 51%; hCYP3A4_BQ_Pct_Inh (CYP3A4; % inhibition at 10 μM, substrate BQ, cDNA expressed protein): 56%; hCYP3A4_DBF_Pct_Inh (CYP3A4; % inhibition at 10 μM, substrate DBF, cDNA expressed protein): 40%; hCYP1A2_CEC_Pct_Inh (CYP1A2; % inhibition at 10 μM, substrate CEC, cDNA expressed protein): 17%; hCYP2C9_MFC_Pct_Inh (CYP2C9; % inhibition at 10 μM, substrate MFC, cDNA expressed protein): 51%; hCYP2D6_AMMC_Pct_Inh (CYP2D6; % inhibition at 10 μM, substrate AMMC, cDNA expressed protein): 3%; melting point: 192.3 to 193.4 °C

What does the source list for `CC(=O)c1ccc(C2=NCc3c(Cl)cccc3-n3cccc32)cc1` [drawing 91]?
IC50 (Cytochrome P450 1A2): > 10 µM; IC50 (Cytochrome P450 2C19): > 10000 nM; IC50 (Cytochrome P450 2C9): > 10 µM; IC50 (Cytochrome P450 2D6): > 10000 nM; IC50 (Cytochrome P450 2C8): > 10 µM
